Columns and labels:
[1] = target: KRas G12D (Homo sapiens, UniProt P01116, G12D); assay: biochemical;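 note: TR-FRET displacement binding assay on KRas, read after a one-hour incubation at room temperature, IC50 fitted from percent-of-control values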
Protocol: (§1) The ability of a compound to bind to KRas was measured using a TR-FRET displacement assay. […] After a 60-minute incubation at room temperature, the reaction was measured using a BMG LABTECH CLARIO star Plus via TR-FRET. […] The POC values were fit to a 4-parameter IC50 equation and the IC50 value reported.

[2] = target: KRas G12V (Homo sapiens, UniProt P01116, G12V); assay: biochemical;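 note: KRas binding measured by TR-FRET displacement at room temperature, IC50 fitted from percent of control values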
Protocol: as §1

[3] = target: KRas G12R (Homo sapiens, UniProt P01116, G12R); assay: biochemical;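 note: TR-FRET displacement assay of compound binding to KRas, read after one hour at room temperature, potency from a four-parameter fit of percent-of-control values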
Chain of KRas G12R (P01116 1-169 isoform P01116-2 G12R): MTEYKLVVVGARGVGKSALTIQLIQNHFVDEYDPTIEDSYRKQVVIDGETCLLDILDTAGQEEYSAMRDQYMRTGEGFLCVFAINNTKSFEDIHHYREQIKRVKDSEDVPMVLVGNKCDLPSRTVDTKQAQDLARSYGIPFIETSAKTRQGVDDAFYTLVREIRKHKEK
Protocol: as §1

[4] = tested on: pERK in MKN1 cells; assay: Inhibition of KRas phosphorylation of ERK (Cisbio HTRF pERK assay); conditions: Homo sapiens, MKN-1, 3 h, read-out: Inhibition (HTRF IC50) of KRas-mediated Phosphorylation of ERK, MKN1
[5] = tested on: pERK in PSN1 cells; assay: as above; conditions: Homo sapiens, PSN1, 3 h, read-out: Inhibition (HTRF IC50) of KRas-mediated Phosphorylation of ERK, PSN1
[6] = tested on: pERK in ASPC1 cells; assay: as above; conditions: Homo sapiens, ASPC1, read-out: Inhibition (HTRF IC50) of KRas-mediated Phosphorylation of ERK, AsPC-1
Protocol: To harvest cells from flask using 0.05% Trypsin/EDTA solution. Add 10 mL of media to stop trypsinizing. Pipette the cells into a conical bottom 50 mL centrifuge tube and centrifuge 5 min×1000 rpm. • 2. Re-suspend the cell pellet in media, take a cell count, and then adjust the cell density using fresh media. • 3. Seed 6,000 cells into cell culture plate with 50 μL media. […] Incubate cell plate overnight in a 37° C., 5% CO2 incubator. • Compound titrations • 1. Use Tecan to complete the compound addition. Compounds start from 10 uM top, 3-fold dilution, and 10 doses. The final DMSO concentration is 0.8%. Dispensed 0.2 uM Trametinib as Min control. • 2. Incubate cell plate for 3 hrs in the incubator. • Detection with cisbio pERK HTRF kit • 1. […] At the end of the compound treatment, flick-off the media. • 3. Add 35 μL of lysis buffer per well using a Multidrop Combi. Then place on a plate agitator shaking at 300 rpm at 4° C. for 40 mins. • 4. Make up the HTRF antibody buffer. For each assay plate, mix 50 μL of d2-conjugate antibody with 950 μL of detection buffer. Similarly, mix 50 μL of Cryptate antibody with 950 μL of detection buffer. Then mix the two diluted antibodies together. • 5. Dispense 3.4 μL the antibody buffer to wells of an empty assay plate. Seal the plate and centrifuge plate 30 sec×1000 rpm. • 6. At the end of the 4° C. lysis, centrifuge the lysate plates 3 mins×1500 rpm. • 7. Use the Bravo to transfer 13.6 μL of lysate from cell culture plate to assay plate.
Then incubate assay plate for 2 hrs at room temperature. […] At the end of incubation, read plate on the Envision after centrifuging plate 30 sec× • 1000 rpm.

[7] = tested on: pERK in HCT116 cells; assay: as above; conditions: Homo sapiens, HCT-116, read-out: Inhibition (HTRF IC50) of KRas-mediated Phosphorylation of ERK, HCT116
[8] = tested on: pERK in H727 cells; assay: as above; conditions: Homo sapiens, NCI-H727, read-out: Inhibition (HTRF IC50) of KRas-mediated Phosphorylation of ERK, H727

Chain of KRas G12V (P01116 1-169 isoform P01116-2 G12V): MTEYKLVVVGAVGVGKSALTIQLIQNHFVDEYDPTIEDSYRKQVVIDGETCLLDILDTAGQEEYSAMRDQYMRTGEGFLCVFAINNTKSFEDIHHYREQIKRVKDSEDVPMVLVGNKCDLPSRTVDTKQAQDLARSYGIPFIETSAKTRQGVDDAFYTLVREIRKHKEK
Chain of KRas G12D (P01116 1-169 isoform P01116-2 G12D): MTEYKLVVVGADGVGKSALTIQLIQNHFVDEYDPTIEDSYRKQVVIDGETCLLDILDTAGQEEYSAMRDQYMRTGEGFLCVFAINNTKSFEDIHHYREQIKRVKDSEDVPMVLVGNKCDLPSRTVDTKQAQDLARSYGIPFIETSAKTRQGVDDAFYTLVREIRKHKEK

Structure (SMILES)	IC50 [1] [µM]	IC50 [2] [µM]	IC50 [3] [µM]	IC50 [4] [µM]	IC50 [5] [µM]	IC50 [6] [µM]	IC50 [7] [µM]	IC50 [8] [µM]
CCc1c(F)ccc2cc(O)cc(-c3ncc4c(NCC5CC(=O)N5)nc(OC[C@@]56CCCN5C[C@H](F)C6)nc4c3F)c12 (single isomer, unassigned) [Example 373]	0.005	≤ 0.002	≤ 0.002	0.103	≥ 10	4.07	3.84	
CCc1c(F)ccc2cc(O)cc(-c3ncc4c(NCC(N)CC(=O)O)nc(OC[C@@]56CCCN5C[C@H](F)C6)nc4c3F)c12 (single isomer, unassigned) [Example 374]	≤ 0.002	0.009	0.015			9.38	≥ 10	
CCc1c(F)ccc2cc(O)cc(-c3ncc4c(NCC5CCC(=O)N5)nc(OC[C@@]56CCCN5C[C@H](F)C6)nc4c3F)c12 (stereo partly drawn) [Example 371, 5-(((7-(8-ethyl-7-fluoro-3-hydroxynaphthalen-1-yl)-8-fluoro-2-(((2R,7aS)-2-fluorohexahydro-1H-pyrrolizin-7a-yl)methoxy)pyrido[4,3-d]pyrimidin-4-yl)amino)methyl)pyrrolidin-2-one]	0.007	≤ 0.002	0.005	0.387	≥ 10	≥ 20	9.34	
CCc1c(F)ccc2cc(O)cc(-c3ncc4c(NCCC5CNC(=O)C5)nc(OC[C@@]56CCCN5C[C@H](F)C6)nc4c3F)c12 (stereo partly drawn) [Example 376, 4-(2-((7-(8-ethyl-7-fluoro-3-hydroxynaphthalen-1-yl)-8-fluoro-2-(((2R,7aS)-2-fluorotetrahydro-1H-pyrrolizin-7a(5H)-yl)methoxy)pyrido[4,3-d]pyrimidin-4-yl)amino)ethyl)pyrrolidin-2-one]	0.016	0.003	0.004			≥ 10	6.49	
CCc1c(F)ccc2cc(O)cc(-c3ncc4c(NCCN5CC(=O)NC5=O)nc(OC[C@@]56CCCN5C[C@H](F)C6)nc4c3F)c12 [Example 378, 1-(2-((7-(8-ethyl-7-fluoro-3-hydroxynaphthalen-1-yl)-8-fluoro-2-(((2R,7aS)-2-fluorohexahydro-1H-pyrrolizin-7a-yl)methoxy)pyrido[4,3-d]pyrimidin-4-yl)amino)ethyl)imidazolidine-2,4-dione]	0.104	0.014	0.025			≥ 10	≥ 10	
CCc1c(F)ccc2cc(O)cc(-c3ncc4c(NCCC5NC(=O)NC5=O)nc(OC[C@@]56CCCN5C[C@H](F)C6)nc4c3F)c12 (stereo partly drawn) [Example 383, 5-(2-((7-(8-ethyl-7-fluoro-3-hydroxynaphthalen-1-yl)-8-fluoro-2-(((2R,7aS)-2-fluorohexahydro-1H-pyrrolizin-7a-yl)methoxy)pyrido[4,3-d]pyrimidin-4-yl)amino)ethyl) imidazolidine-2,4-dione]	0.013	0.003	0.008			≥ 10	≥ 10	
CCc1c(F)ccc2cc(O)cc(-c3ncc4c(N5CCCC6(CC(=O)N6)C5)nc(OCC5(CN(C)C)CC5)nc4c3F)c12 (stereo not drawn) [Example 513, 6-(2-((1-((dimethylamino)methyl)cyclopropyl)methoxy)-7-(8-ethyl-7-fluoro-3-hydroxynaphthalen-1-yl)-8-fluoropyrido[4,3-d]pyrimidin-4-yl)-1,6-diazaspiro[3.5]nonan-2-one]	≤ 0.002	≤ 0.002	0.003	0.221	≥ 10	1.31		0.869
CN(C)CC1(COc2nc(N3CCC[C@@](C)(O)C3)c3cnc(-c4cc(O)cc(Cl)c4C4CC4)c(F)c3n2)CC1 [Example 517, (R)-1-(7-(3-chloro-2-cyclopropyl-5-hydroxyphenyl)-2-((1-((dimethylamino)methyl)cyclopropyl)methoxy)-8-fluoropyrido[4,3-d]pyrimidin-4-yl)-3-methylpiperidin-3-ol]	≤ 0.002	0.003	0.006	0.042	≥ 10	0.203		0.321
